Results as given in patent publication US11945819B1, “Dimethyl 7-bromo-1-(4-substituted benzoyl)pyrrolo[1,2-a]quinoline-2,3-dicarboxylates as anti-inflammatory agents” (KING FAISAL UNIVERSITY, priority 2023, dated 2024).

Legend:
bovine serum albumin = bovine serum albumin (Bos taurus, UniProt P02769); test: In vitro anti-inflammatory activity by inhibition of bovine serum albumin denaturation; format: biochemical; details: for % Inhibition at 10 μg: inhibition of heat-induced albumin denaturation (60° C., 10 min), turbidity, average of triplicate; for inhibition rate: at 10 μg, bovine serum albumin denaturation method
Chain of bovine serum albumin (P02769 25-607): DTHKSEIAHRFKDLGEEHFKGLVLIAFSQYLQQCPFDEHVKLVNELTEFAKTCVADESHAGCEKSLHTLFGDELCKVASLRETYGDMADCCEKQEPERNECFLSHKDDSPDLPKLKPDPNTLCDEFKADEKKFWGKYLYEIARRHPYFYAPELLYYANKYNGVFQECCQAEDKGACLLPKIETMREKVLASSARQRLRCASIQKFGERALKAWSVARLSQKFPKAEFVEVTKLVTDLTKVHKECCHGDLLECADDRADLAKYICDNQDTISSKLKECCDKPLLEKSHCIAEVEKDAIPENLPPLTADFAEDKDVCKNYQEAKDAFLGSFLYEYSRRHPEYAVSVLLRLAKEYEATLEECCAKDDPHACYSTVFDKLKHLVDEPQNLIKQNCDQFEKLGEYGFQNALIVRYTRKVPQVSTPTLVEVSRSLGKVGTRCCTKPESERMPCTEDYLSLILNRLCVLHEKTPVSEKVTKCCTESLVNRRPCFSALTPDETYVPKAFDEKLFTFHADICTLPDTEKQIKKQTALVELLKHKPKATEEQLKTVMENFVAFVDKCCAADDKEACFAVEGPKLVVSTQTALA
Procedure: Accordingly, in an embodiment of the present subject matter, the dimethyl 7-bromo-1-(4- substituted benzoyl)pyrrolo[1,2-α]quinoline-2,3-dicarboxylates derivatives, or the dimethyl 7-bromo-1-(4-substituted benzoyl)pyrrolo[1,2-α]quinoline-2,3-dicarboxylates, as described herein were screened for their in vitro anti-inflammatory activity by inhibiting the bovine serum albumin denaturation method. The test compound is dissolved in a minimum amount of dimethyl sulphoxide (DMSO) and diluted with phosphate buffer. The final concentration of DMF in all solutions is less than 2.5%. Test solutions containing different concentrations of the drug is mixed with albumin solution in phosphate buffer and incubated at about 27-37° C.±10° C. for about at least 15 min. Denaturation is induced by keeping the reaction mixture at about 60° C.±10° C. in a water bath for at least about 10 min. After cooling, the turbidity is measured at about 210-660 nm (Shimadzu Spectrometer). Percentage inhibition of denaturation is calculated from a control where no drug was added. The percentage of inhibition is calculated from the following formula. The standard solution is also prepared as similar to that of the test solution. Ibuprofen can be used as a standard.
The newly synthesized compounds were screened for their in-vitro anti-inflammatory activity by inhibiting the bovine serum albumin denaturation method. The test compounds were dissolved in a minimum dimethyl sulphoxide (DMSO) and diluted with phosphate buffer (0.2M, pH 7.4). The final concentration of DMF in all solutions was less than 2.5%. Test solution (1 mL) containing different concentrations of the drug was mixed with 1 mL of 1 mm albumin solution in phosphate buffer and incubated at 27-37° C.±10° C. for 15 min. Denaturation was induced by keeping the reaction mixture at 60° C.±10° C. in a water bath for 10 min. After cooling, the turbidity was measured at 210-660 nm (Shimadzu Spectrometer). Percentage inhibition of denaturation was calculated from control where no drug was added. Each experiment was done in triplicate, and the average was taken. The percentage of inhibition is calculated from the following formula. The standard solution was also prepared as similar to that of the test solution. Ibuprofen was used as a standard.
The inhibition was calculated using the following equation: % Inhibition=100 (1−Vt/Vc) where, Vt=Drug absorbance of triplicate average Vc=Control absorbance of triplicate average

melting point [°C]	% Inhibition at 10 μg (bovine serum albumin) [%]	inhibition rate (bovine serum albumin) [%]	Structure (SMILES)
169 to 171	49.75	49.75	COC(=O)c1c(C(=O)OC)c2ccc3cc(Br)ccc3n2c1C(=O)c1ccc(F)cc1 [Compound 3a, dimethyl 7-bromo-1-(4-fluorobenzoyl)pyrrolo[1,2-α]quinoline-2,3-dicarboxylate]
210 to 212	42.52	42.52	COC(=O)c1c(C(=O)OC)c2ccc3cc(Br)ccc3n2c1C(=O)c1ccc(Cl)cc1 [Compound 3b, dimethyl 7-bromo-1-(4-chlorobenzoyl)pyrrolo[1,2-α]quinoline-2,3-dicarboxylate]
170 to 172	54.35	54.35	COC(=O)c1c(C(=O)OC)c2ccc3cc(Br)ccc3n2c1C(=O)c1ccc(Br)cc1 [Compound 3c, dimethyl 7-bromo-1-(4-bromobenzoyl)pyrrolo[1,2-α]quinoline-2,3-dicarboxylate]
